Assay results taken from patent US11109593B2, “Isoxazolin-5-one derivative and herbicide containing same as active ingredient” (HOKKO CHEMICAL INDUSTRY CO., LTD., priority 2017, dated 2021).

Tests used:
Assay type in all cases: in vivo
[1] = system: Echinochloa crus-galli; assay: Test Example 1: herbicidal effect test by treatment of rice paddy soil (immediately after seeding); details: 120 g/10a active ingredient, dry weight vs untreated area, 14 days after treatment
In short: (§1)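 Puddled, fertilized (N:P:K=17:17:17) paddy soil in Wagner pots; seeds sown 0–1 cm deep, flooded to about 3 cm. Emulsifiable formulations diluted in water and dropped into the water immediately after seeding at 120 g active ingredient per 10 ares; greenhouse. Herbicidal rate from dry weight vs untreated at 14 days.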

[2] = system: Scirpus juncoides; assay: as above; details: 120 g/10a active ingredient, dry weight vs untreated area, 14 days after treatment
In short: as §1

[3] = system: broad leaf weeds (Lindernia pyxidaria and Monochoria vaginalis); assay: as above; details: 120 g/10a active ingredient, dry weight vs untreated area, 14 days after treatment; for pest or weed control at 1200 g/ha: 336 h
In short: as §1

[4] = system: Echinochloa crus-galli; assay: Test Example 2: herbicidal effect test by treatment during growing period in paddy rice cultivation (seven days after seeding); details: 120 g/10a active ingredient, assessed 14 days after treatment, dry weight vs untreated area
In short: (§2)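 Sow 30 seeds per species (0–1 cm) into puddled, fertilized paddy soil; keep flooded ~3 cm in greenhouse. Day 7 after seeding: drop water-diluted emulsion, 120 g a.i./10 ares. Harvest 14 d post-treatment; compare dry weight with untreated pots (duplicate).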

[5] = system: Scirpus juncoides; assay: as above; details: 120 g/10a active ingredient, assessed 14 days after treatment, dry weight vs untreated area
In short: as §2

[6] = system: broad leaf weeds (Lindernia pyxidaria and Monochoria vaginalis); assay: as above; details: 120 g/10a active ingredient, assessed 14 days after treatment, dry weight vs untreated area; for pest or weed control at 1200 g/ha: 336 h
In short: as §2

[7] = system: Amaranthus viridis; assay: Test Example 3: herbicidal effect test by treatment of dry field farming soil (one day after seeding); details: 120 g/10a active ingredient, evaluated 14 days after treatment
In short: (§3)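 Weeds were seeded into the upper soil layer of alluvial field soil and, one day afterwards, the soil surface was sprayed with water-diluted emulsion delivering 120 g active ingredient per 10 ares. Mean plant dry weight relative to untreated pots after 14 days gave the herbicidal rate, tested in duplicate.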

[8] = system: Chenopodium album; assay: as above; details: 120 g/10a active ingredient, evaluated 14 days after treatment
In short: as §3

[9] = system: Echinochloa crus-galli; assay: as above; details: 120 g/10a active ingredient, evaluated 14 days after treatment
In short: as §3

[10] = system: southern crabgrass; assay: as above; details: 120 g/10a active ingredient, evaluated 14 days after treatment
In short: as §3

[11] = system: Amaranthus viridis; assay: Test Example 4: herbicidal effect test by treatment of leave and stem in dry field farming (seven days after seeding); details: 120 g/10a active ingredient, emulsion sprayed seven days after seeding, evaluated 14 days after treatment
Procedure: (§4) This test was conducted in a double system per one agent solution concentration area, and the herbicidal rates (%) were determined by the following equation (Math. 1) on 14 days after the treatment with the agents. Herbicidal Rate (%)={1-(Average Dry Weight (g) of Plant of Treated Area)/(Average Dry Weight (g) of Plant of Untreated Area)}×100 [Math. 1]
(§5) Herbicidal Effect Test by Treatment of Leave and Stem in Dry Field Farming
(§6) Pots with a size of 36 cm^2 were filled with a dry field farming soil (alluvium). The soil of the top layer of 1 cm and seeds of weeds, namely southern crabgrass, Echinochloa crus-galli, Chenopodium album and Amaranthus viridis, 20 seeds each, were evenly mixed, and the top layer was gently pressed. Emulsions prepared using the compounds in Table 6 below according to Formulation Example 5 were diluted with water seven days after seeding, and the water-diluted agent solutions were sprayed to the soil surfaces at a ratio of 100 liters per 10 ares. The converted amount of the applied active ingredient corresponded to 120 g per 10 ares. The herbicidal effects were evaluated by the same standard as that in Test Example 1 on 14 days after the treatment with the agents. […] The compound numbers in Table 6 are the same as those in Table 1 and Table 2 above.

[12] = system: Chenopodium album; assay: as above; details: 120 g/10a active ingredient, emulsion sprayed seven days after seeding, evaluated 14 days after treatment
Procedure: as §4, §5, §6

[13] = system: Echinochloa crus-galli; assay: as above; details: 120 g/10a active ingredient, emulsion sprayed seven days after seeding, evaluated 14 days after treatment
Procedure: as §4, §5, §6

[14] = system: southern crabgrass; assay: as above; details: 120 g/10a active ingredient, emulsion sprayed seven days after seeding, evaluated 14 days after treatment
Procedure: as §4, §5, §6

Structure (SMILES) | Herbicidal rate (%) Echinochloa crus-galli [1] | Herbicidal rate (%) Scirpus juncoides [2] | Herbicidal rate (%) Lindernia pyxidaria ([3]; Lindernia pyxidaria) | Herbicidal rate (%) Monochoria vaginalis ([3]; Monochoria vaginalis) | Herbicidal rate (%) Echinochloa crus-galli [4] | Herbicidal rate (%) Scirpus juncoides [5] | Herbicidal rate (%) Lindernia pyxidaria ([6]; Lindernia pyxidaria) | Herbicidal rate (%) Monochoria vaginalis ([6]; Monochoria vaginalis) | herbicidal rate, Amaranthus viridis [7] | herbicidal rate, Chenopodium album [8] | herbicidal rate, Echinochloa crus-galli [9] | herbicidal rate, southern crabgrass [10] | herbicidal effect (herbicidal rate), Amaranthus viridis [11] | herbicidal effect (herbicidal rate), Chenopodium album [12] | herbicidal effect (herbicidal rate), Echinochloa crus-galli [13] | herbicidal effect (herbicidal rate), southern crabgrass [14] | also measured
CCC(C)n1oc(=O)c(Cc2ccccc2N(C(=O)COC)S(=O)(=O)C(F)(F)F)c1C (stereo not shown) [Compound 1-444] | 90% | 90% | 90% | 90% | 90% | 90% | 90% | 90% | 90% | 90% | 90% | 90% | 40% | 40% | 90% | 90% | –
Cc1c(Cc2ccccc2N(S(=O)(=O)C(F)(F)F)S(=O)(=O)C(F)(F)F)c(=O)on1C(C)(C)C [Compound 1-963, N-[2-[(2-tert-butyl-3-methyl-5-oxo-isoxazol-4-yl)methyl]phenyl]-1,1,1-trifluoro-N-(trifluoromethylsulfonyl)methanesulfonamide] | – | – | – | – | – | – | – | – | – | – | – | – | – | – | – | – | pest or weed control at 1200 g/ha ([1]; in Echinochloa crus-galli, 336 h, read-out: Herbicidal rate (%) Echinochloa crus-galli): 90%; pest or weed control at 1200 g/ha ([2]; in Schoenoplectiella juncoides, 336 h, read-out: Herbicidal rate (%) Scirpus juncoides): 90%; pest or weed control at 1200 g/ha ([3]; Monochoria vaginalis, read-out: Herbicidal rate (%) Monochoria vaginalis): 90%; pest or weed control at 1200 g/ha ([3]; in Lindernia, Lindernia pyxidaria, read-out: Herbicidal rate (%) Lindernia pyxidaria): 90%; pest or weed control at 1200 g/ha ([4]; Echinochloa crus-galli, 336 h, read-out: herbicidal rate (%) Echinochloa crus-galli): 90%; pest or weed control at 1200 g/ha ([5]; Schoenoplectiella juncoides, 336 h, read-out: herbicidal rate (%) Scirpus juncoides): 90%; pest or weed control at 1200 g/ha ([6]; Lindernia pyxidaria, read-out: herbicidal rate (%) Lindernia pyxidaria): 90%; pest or weed control at 1200 g/ha ([6]; Monochoria vaginalis, read-out: herbicidal rate (%) Monochoria vaginalis): 90%; pest or weed control at 1200 g/ha ([7]; Amaranthus viridis, 336 h, read-out: herbicidal rate, Amaranthus viridis): 90%; pest or weed control at 1200 g/ha ([8]; Chenopodium album, 336 h, read-out: herbicidal rate, Chenopodium album): 90%; pest or weed control at 1200 g/ha ([9]; Echinochloa crus-galli, 336 h, read-out: herbicidal rate, Echinochloa crus-galli): 90%; pest or weed control at 1200 g/ha ([10]; Digitaria ciliaris, 336 h, read-out: herbicidal rate, southern crabgrass): 90%; pest or weed control at 1200 g/ha ([11]; Amaranthus viridis, 336 h, read-out: herbicidal effect (herbicidal rate), Amaranthus viridis): 40%; pest or weed control at 1200 g/ha ([12]; Chenopodium album, 336 h, read-out: herbicidal effect (herbicidal rate), Chenopodium album): 40%; pest or weed control at 1200 g/ha ([13]; Echinochloa crus-galli, 336 h, read-out: herbicidal effect (herbicidal rate), Echinochloa crus-galli): 90%; pest or weed control at 1200 g/ha ([14]; Digitaria ciliaris, 336 h, read-out: herbicidal effect (herbicidal rate), southern crabgrass): 90%
CCOC(=O)N(c1ccccc1Cc1c(C)n(C(C)c2ccccc2)oc1=O)S(=O)(=O)C(F)(F)F (stereo not shown) [Compound 1-626] | 90% | 90% | 90% | 90% | 90% | 90% | 90% | 90% | 90% | 90% | 90% | 90% | 40% | 40% | 90% | 90% | –
C=C(C)Cn1oc(=O)c(Cc2ccccc2NS(=O)(=O)C(F)(F)F)c1C [Compound 1-137] | 90% | 90% | 90% | 70% | 90% | 80% | 40% | 60% | 40% | 40% | 70% | 50% | 80% | 0% | 80% | 0% | –
CCC(C)n1oc(=O)c(Cc2ccccc2N(C(=O)Cc2ccccc2)S(=O)(=O)C(F)(F)F)c1C (stereo not shown) [Compound 1-504] | 90% | 90% | 90% | 90% | 90% | 90% | 90% | 90% | 90% | 90% | 90% | 90% | 40% | 40% | 90% | 90% | –
Cc1c(Cc2ccccc2N(C(=O)C2CC2)S(=O)(=O)C(F)(F)F)c(=O)on1C(C)c1ccccc1 (stereo not shown) [Compound 1-416] | 90% | 90% | 90% | 90% | 90% | 90% | 90% | 90% | 90% | 90% | 90% | 90% | 40% | 40% | 90% | 90% | –
COCC(C)n1oc(=O)c(Cc2ccccc2N(C(=O)C(C)C)S(=O)(=O)C(F)(F)F)c1C (stereo not shown) [Compound 1-335] | 90% | 90% | 90% | 90% | 90% | 90% | 90% | 90% | 90% | 90% | 90% | 90% | 40% | 40% | 90% | 90% | –
